Data taken from the supplement of paper PMC10307832.

Key:
Experiment in all cases: relative viability (nuclei count vs DMSO), 5 days (fraction); higher = more cells survive
ABC-1 = system: ABC-1
Procedure, shortened: (§1)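 Cells from lung cancer lines were seeded into 1536-well plates and, one day later, dosed by pin tool. Treatments were either a single drug or a fixed dose of an anchor drug with five library-drug doses (not always all listed) in √10 steps. After 5 days, nuclei were stained in a one-step fixation (final 0.05% Triton X-100, 1% formaldehyde, 1 ug/ml Hoechst) and counted on 4× images, and relative viability is the treated-to-vehicle nuclei ratio, as the median of duplicate plates.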

CAL-12T = system: CAL-12T
Procedure, shortened: as §1

COR-L 105 = system: COR-L 105
Procedure, shortened: as §1

EKVX = system: EKVX
Procedure, shortened: as §1

EPLC-272H = system: EPLC-272H
Procedure, shortened: as §1

H3255 = system: H3255
Procedure, shortened: as §1

HCC-366 = system: HCC-366
Procedure, shortened: as §1

HCC-827 = system: HCC-827
Procedure, shortened: as §1

NCI-H1355 = system: NCI-H1355
Procedure, shortened: as §1

NCI-H1792 = system: NCI-H1792
Procedure, shortened: as §1

NCI-H1975 = system: NCI-H1975
Procedure, shortened: as §1

NCI-H1993 = system: NCI-H1993
Procedure, shortened: as §1

NCI-H2009 = system: NCI-H2009
Procedure, shortened: as §1

NCI-H2085 = system: NCI-H2085
Procedure, shortened: as §1

NCI-H2087 = system: NCI-H2087
Procedure, shortened: as §1

NCI-H2228 = system: NCI-H2228
Procedure, shortened: as §1

NCI-H322M = system: NCI-H322M
Procedure, shortened: as §1

NCI-H441 = system: NCI-H441
Procedure, shortened: as §1

NCI-H460 = system: NCI-H460
Procedure, shortened: as §1

SK-MES-1 = system: SK-MES-1
Procedure, shortened: as §1

Work on `CN1CCN(CCOc2cc(OC3CCOCC3)c3c(Nc4c(Cl)ccc5c4OCO5)ncnc3c2)CC1` [Saracatinib] + C[C@]1(O)C[C@@H](c2nc(-c3ccc4ccc(-c5ccccc5)nc4c3)c3c(N)nccn32)C1 [Linsitinib] (partner 1 µM) yielded a relative viability (ABC-1; first compound 0.02 µM) of 0.61, a relative viability (ABC-1; first compound 0.2 µM) of 0.902 and a relative viability (ABC-1; first compound 0.6325 µM) of 0.677. The relative viability (ABC-1; first compound 2 µM) was 0.753, the relative viability (CAL-12T; first compound 0.02 µM) was 0.805 and the relative viability (CAL-12T; first compound 0.2 µM) was 0.776. For the same compound, the relative viability (CAL-12T; first compound 0.6325 µM) was 0.863, the relative viability (CAL-12T; first compound 2 µM) was 1.03 and the relative viability (COR-L 105; first compound 0.02 µM) was 0.872. It also gave a relative viability (COR-L 105; first compound 0.2 µM) of 1.02, a relative viability (COR-L 105; first compound 0.6325 µM) of 0.63 and a relative viability (COR-L 105; first compound 2 µM) of 0.58. The relative viability (EKVX; first compound 0.02 µM) was 0.988, the relative viability (EKVX; first compound 0.2 µM) was 0.861 and the relative viability (EKVX; first compound 0.6325 µM) was 0.866. For the same compound, the relative viability (EKVX; first compound 2 µM) was 0.318, the relative viability (EPLC-272H; first compound 0.02 µM) was 1.23 and the relative viability (EPLC-272H; first compound 0.2 µM) was 1.28. It also gave a relative viability (EPLC-272H; first compound 0.6325 µM) of 1.12, a relative viability (EPLC-272H; first compound 2 µM) of 1.07 and a relative viability (H3255; first compound 0.02 µM) of 0.994. The relative viability (H3255; first compound 0.2 µM) was 0.986, the relative viability (H3255; first compound 0.6325 µM) was 0.647 and the relative viability (H3255; first compound 2 µM) was 0.233. For the same compound, the relative viability (HCC-366; first compound 0.02 µM) was 0.607, the relative viability (HCC-366; first compound 0.6325 µM) was 0.283 and the relative viability (HCC-366; first compound 2 µM) was 0.13. The relative viability (HCC-827; first compound 0.02 µM) was 0.981, the relative viability (HCC-827; first compound 0.2 µM) was 0.739 and the relative viability (HCC-827; first compound 0.6325 µM) was 0.338. The relative viability (HCC-827; first compound 2 µM) was 0.158, the relative viability (NCI-H1355; first compound 0.02 µM) was 0.793 and the relative viability (NCI-H1355; first compound 0.2 µM) was 0.767. The relative viability (NCI-H1355; first compound 0.6325 µM) was 0.832, the relative viability (NCI-H1355; first compound 2 µM) was 0.615 and the relative viability (NCI-H1792; first compound 0.02 µM) was 0.533. For the same compound, the relative viability (NCI-H1792; first compound 0.2 µM) was 0.374, the relative viability (NCI-H1792; first compound 0.6325 µM) was 0.647 and the relative viability (NCI-H1792; first compound 2 µM) was 0.384. The relative viability (NCI-H1975; first compound 0.02 µM) was 0.953, the relative viability (NCI-H1975; first compound 0.6325 µM) was 0.95 and the relative viability (NCI-H1975; first compound 2 µM) was 0.478. The relative viability (NCI-H1993; first compound 0.02 µM) was 0.682, the relative viability (NCI-H1993; first compound 0.2 µM) was 0.715 and the relative viability (NCI-H1993; first compound 2 µM) was 0.621. It also gave a relative viability (NCI-H2009; first compound 0.02 µM) of 1.19, a relative viability (NCI-H2009; first compound 0.2 µM) of 1.04 and a relative viability (NCI-H2009; first compound 0.6325 µM) of 1.15. It also gave a relative viability (NCI-H2009; first compound 2 µM) of 1.04, a relative viability (NCI-H2085; first compound 0.02 µM) of 0.952 and a relative viability (NCI-H2085; first compound 0.2 µM) of 0.901. The relative viability (NCI-H2085; first compound 0.6325 µM) was 0.881, the relative viability (NCI-H2085; first compound 2 µM) was 0.898 and the relative viability (NCI-H2087; first compound 0.02 µM) was 1.11. For the same compound, the relative viability (NCI-H2087; first compound 0.2 µM) was 0.947, the relative viability (NCI-H2087; first compound 0.6325 µM) was 1.2 and the relative viability (NCI-H2087; first compound 2 µM) was 1.12. It also gave a relative viability (NCI-H2228; first compound 0.02 µM) of 0.806, a relative viability (NCI-H2228; first compound 0.2 µM) of 0.704 and a relative viability (NCI-H2228; first compound 0.6325 µM) of 0.574. The relative viability (NCI-H2228; first compound 2 µM) was 0.392, the relative viability (NCI-H322M; first compound 0.02 µM) was 0.999 and the relative viability (NCI-H322M; first compound 0.2 µM) was 0.962. For the same compound, the relative viability (NCI-H322M; first compound 0.6325 µM) was 0.924, the relative viability (NCI-H322M; first compound 2 µM) was 0.569 and the relative viability (NCI-H441; first compound 0.02 µM) was 0.508. It also gave a relative viability (NCI-H441; first compound 0.2 µM) of 0.515, a relative viability (NCI-H441; first compound 0.6325 µM) of 0.682 and a relative viability (NCI-H441; first compound 2 µM) of 0.604. It also gave a relative viability (NCI-H460; first compound 0.02 µM) of 0.716, a relative viability (NCI-H460; first compound 0.2 µM) of 0.664 and a relative viability (NCI-H460; first compound 0.6325 µM) of 0.329. For the same compound, the relative viability (NCI-H460; first compound 2 µM) was 0.181, the relative viability (SK-MES-1; first compound 0.02 µM) was 0.934 and the relative viability (SK-MES-1; first compound 0.2 µM) was 0.903. For the same compound, the relative viability (SK-MES-1; first compound 0.6325 µM) was 0.87 and the relative viability (SK-MES-1; first compound 2 µM) was 0.471.

With `CN1CCN(CCOc2cc(OC3CCOCC3)c3c(Nc4c(Cl)ccc5c4OCO5)ncnc3c2)CC1` [Saracatinib] + Cc1nc(NC(=O)N2CCC[C@H]2C(N)=O)sc1-c1ccnc(C(C)(C)C(F)(F)F)c1 [Alpelisib] (partner 2 µM) the relative viability (ABC-1; first compound 0.02 µM) was 0.854, the relative viability (ABC-1; first compound 0.2 µM) was 1.06 and the relative viability (ABC-1; first compound 0.6325 µM) was 0.981. The relative viability (ABC-1; first compound 2 µM) was 0.857, the relative viability (CAL-12T; first compound 0.02 µM) was 1.28 and the relative viability (CAL-12T; first compound 0.2 µM) was 1.06. For the same compound, the relative viability (CAL-12T; first compound 0.6325 µM) was 1.33, the relative viability (CAL-12T; first compound 2 µM) was 0.927 and the relative viability (COR-L 105; first compound 0.02 µM) was 0.91. The relative viability (COR-L 105; first compound 0.2 µM) was 0.96, the relative viability (COR-L 105; first compound 0.6325 µM) was 0.7 and the relative viability (COR-L 105; first compound 2 µM) was 0.416. The relative viability (EKVX; first compound 0.02 µM) was 0.897, the relative viability (EKVX; first compound 0.2 µM) was 0.551 and the relative viability (EKVX; first compound 0.6325 µM) was 0.671. The relative viability (EKVX; first compound 2 µM) was 0.325, the relative viability (EPLC-272H; first compound 0.02 µM) was 1.03 and the relative viability (EPLC-272H; first compound 0.2 µM) was 0.732. The relative viability (EPLC-272H; first compound 0.6325 µM) was 0.942, the relative viability (EPLC-272H; first compound 2 µM) was 0.821 and the relative viability (H3255; first compound 0.02 µM) was 0.624. It also gave a relative viability (H3255; first compound 0.2 µM) of 0.556, a relative viability (H3255; first compound 0.6325 µM) of 0.366 and a relative viability (H3255; first compound 2 µM) of 0.166. It also gave a relative viability (HCC-366; first compound 0.02 µM) of 0.429, a relative viability (HCC-366; first compound 0.6325 µM) of 0.272 and a relative viability (HCC-366; first compound 2 µM) of 0.152. For the same compound, the relative viability (HCC-827; first compound 0.02 µM) was 0.922, the relative viability (HCC-827; first compound 0.2 µM) was 0.524 and the relative viability (HCC-827; first compound 0.6325 µM) was 0.195. The relative viability (HCC-827; first compound 2 µM) was 0.157, the relative viability (NCI-H1355; first compound 0.02 µM) was 0.848 and the relative viability (NCI-H1355; first compound 0.2 µM) was 0.833. It also gave a relative viability (NCI-H1355; first compound 0.6325 µM) of 0.861, a relative viability (NCI-H1355; first compound 2 µM) of 0.794 and a relative viability (NCI-H1792; first compound 0.02 µM) of 0.706. The relative viability (NCI-H1792; first compound 0.2 µM) was 0.492, the relative viability (NCI-H1792; first compound 0.6325 µM) was 0.929 and the relative viability (NCI-H1792; first compound 2 µM) was 0.608. The relative viability (NCI-H1975; first compound 0.02 µM) was 0.671, the relative viability (NCI-H1975; first compound 0.6325 µM) was 0.585 and the relative viability (NCI-H1975; first compound 2 µM) was 0.367. For the same compound, the relative viability (NCI-H1993; first compound 0.02 µM) was 0.68, the relative viability (NCI-H1993; first compound 0.2 µM) was 0.531 and the relative viability (NCI-H1993; first compound 2 µM) was 0.656. The relative viability (NCI-H2009; first compound 0.02 µM) was 1.16, the relative viability (NCI-H2009; first compound 0.2 µM) was 1.14 and the relative viability (NCI-H2009; first compound 0.6325 µM) was 1.01. For the same compound, the relative viability (NCI-H2009; first compound 2 µM) was 0.961, the relative viability (NCI-H2085; first compound 0.02 µM) was 0.957 and the relative viability (NCI-H2085; first compound 0.2 µM) was 0.85. The relative viability (NCI-H2085; first compound 0.6325 µM) was 0.91, the relative viability (NCI-H2085; first compound 2 µM) was 0.888 and the relative viability (NCI-H2087; first compound 0.02 µM) was 1.13. For the same compound, the relative viability (NCI-H2087; first compound 0.2 µM) was 0.934, the relative viability (NCI-H2087; first compound 0.6325 µM) was 1.41 and the relative viability (NCI-H2087; first compound 2 µM) was 1.04. It also gave a relative viability (NCI-H2228; first compound 0.02 µM) of 0.734, a relative viability (NCI-H2228; first compound 0.2 µM) of 0.562 and a relative viability (NCI-H2228; first compound 0.6325 µM) of 0.532. It also gave a relative viability (NCI-H2228; first compound 2 µM) of 0.365, a relative viability (NCI-H322M; first compound 0.02 µM) of 0.761 and a relative viability (NCI-H322M; first compound 0.2 µM) of 0.876. It also gave a relative viability (NCI-H322M; first compound 0.6325 µM) of 0.822, a relative viability (NCI-H322M; first compound 2 µM) of 0.639 and a relative viability (NCI-H441; first compound 0.02 µM) of 0.715. For the same compound, the relative viability (NCI-H441; first compound 0.2 µM) was 0.544, the relative viability (NCI-H441; first compound 0.6325 µM) was 1.03 and the relative viability (NCI-H441; first compound 2 µM) was 0.772. It also gave a relative viability (NCI-H460; first compound 0.02 µM) of 0.574, a relative viability (NCI-H460; first compound 0.2 µM) of 0.347 and a relative viability (NCI-H460; first compound 0.6325 µM) of 0.289. The relative viability (NCI-H460; first compound 2 µM) was 0.175, the relative viability (SK-MES-1; first compound 0.02 µM) was 0.713 and the relative viability (SK-MES-1; first compound 0.2 µM) was 0.77. It also gave a relative viability (SK-MES-1; first compound 0.6325 µM) of 0.76 and a relative viability (SK-MES-1; first compound 2 µM) of 0.644.
